# From US9333202B2, “Non-retinoid antagonists for treatment of age-related macular degeneration and stargardt disease” (THE TRUSTEES OF COLUMBIA UNIVERSITY IN THE CITY OF NEW YORK, priority 2012, dated 2016)
# Entries after “also recorded” stand apart in the source; their conditions may differ.
# Legend:
# insulin sensitivity = conditions: mouse diabetes models; cited from earlier work
# RBP4-TTR interaction = RBP4-TTR interaction (Homo sapiens, UniProt P02753); assay: HTRF/TR-FRET assay for retinol-dependent RBP4-TTR interaction (1 μM retinol); type: biochemical; parameters: human RBP4 fragment (amino acids 19-201) was expressed in the Gold(DE3)pLysS E. coli strain; made in house; host or cells: E. coli Gold(DE3)pLysS (Stratagene), pMAL-c4x vector
# Excerpt: Bacterially expressed MBP-RBP4 and untagged TTR were used in this assay. For the use in the TR-FRET assay the maltose binding protein (MBP)-tagged human RBP4 fragment (amino acids 19-201) was expressed in the Gold(DE3)pLysS E. coli strain (Stratagene) using the […] vector. Following cell lysis, recombinant RBP4 was purified from the soluble fraction using the ACTA FPLC system (GE Healthcare) equipped with the 5-ml the MBP Trap HP column. Human untagged TTR was purchased from Calbiochem. Untagged TTR was labeled directly with Eu^3+ Cryptate-NHS using the HTRF Cryptate Labeling kit from CisBio following the manufacturer's recommendations. HTRF assay was performed in white low volume 384 well plates (Greiner-Bio) in a final assay volume of 16 μl per well. The reaction buffer contained 10 mM Tris-HCl pH 7.5, 1 mM DTT, 0.05% NP-40, 0.05% Prionex, 6% glycerol, and 400 mM KF. Each reaction contained 60 nM MBP-RBP4 and 2 nM TTR-Eu along with 26.7 nM of anti-MBP antibody conjugated with d2 (Cisbio). Titration of test compounds in this assay was conducted in the presence of 1 μM retinol. All reactions were assembled in the dark under dim red light and incubated overnight at +4° C. wrapped in aluminum foil. TR-FRET signal was measured in the SpectraMax M5e Multimode Plate Reader (Molecular Device). Fluorescence was excited at 337 nm and two readings per well were taken: Reading 1 for time-gated energy transfer from Eu(K) to d2 (337 nm excitation, 668 nm emission, counting delay 75 microseconds, counting window 100 microseconds) and Reading 2 for Eu(K) time-gated fluorescence (337 nm excitation, 620 nm emission, counting delay 400 microseconds, counting window 400 microseconds). The TR-FRET signal was expressed as the ratio of fluorescence intensity: Flu665/Flu620×10,000.
# serum RBP4 = assay: Serum RBP4 measurement (ELISA) in mice after oral dosing; type: in vivo, mouse
# Procedure: The Abca4−/− mouse model manifests accelerated accumulation of lipofuscin in the RPE and is considered a pre-clinical efficacy model for a drug reducing lipofuscin accumulation.
# Ten week-old Abca4 null mutant mice (129/SV×C57BL/6J) bred as previously described were used in the study. Abca4−/− (knockout) and Abca4+/+(wild-type) mice were raised under 12 h on-off cyclic lighting with an in-cage illuminance of 30-50 lux. For long-term oral dosing A1120 was formulated into Purina 5035 rodent chow at Research Diets, Inc. (New Brunswick, N.J.) to ensure consistent 30 mg/kg daily oral dosing. Animals were administered the A1120-containing chow for 6 weeks.
# Blood samples were collected from a tail vein at days 0, 21 and 42 of the A1120 dosing. Whole blood was drawn into a centrifuge tube and was let clot at room temperature for 30 min followed by centrifugation at 2,000×g for 15 minutes at +4° C. to collect serum. Serum RBP4 was measured using the RBP4 (mouse/rat) dual ELISA kit (Enzo Life Sciences) following the manufacturer's instructions.
# Blood samples collected from the treatment and control groups at baseline, Day 21 and Day 42 were used to measure serum RBP4 in order to correlate RBP4 levels with reduction in formation of lipofuscin bisretinoids. […] Levels of lipofuscin fluorophores (A2E, A2-DHP-PE and all-trans-retinal dimer-PE) were determined at the end of the 42-day treatment period using quantitative HPLC.
# [1] = Abca4−/− mice, 30 mg/kg daily oral in chow
compound,measurement,setting,value
"O=C(O)c1ccccc1NC(=O)N1CCC(c2ccccc2C(F)(F)F)CC1 [Compound 1, 2(4-(2-(trifluoromethyl)phenyl)piperidine-1-carboxamido)benzoic acid]",Effect on insulin sensitivity,insulin sensitivity,did not improve insulin sensitivity
same,Antagonism of RBP4-TTR interaction in vitro (in words),RBP4-TTR interaction,antagonize retinol-dependent RBP4-TTR interaction; also recorded: disrupt retinol-induced RBP4-TTR interaction; also recorded: antagonize RBP4-TTR interaction in vitro at biologically significant concentrations
same,Serum RBP4 reduction at Week 3 / Day 21 compared with Day 0,serum RBP4; [1],64%
same,Serum RBP4 reduction at Week 6 / Day 42 compared with Day 0,serum RBP4; [1],75%
same,Effect on serum RBP4 levels (in words),"serum RBP4; mouse, in vivo",reduce serum REBP4 levels
same,Reduction in the serum RBP4 level,"serum RBP4; orally dosed for 3 weeks at 30 mg/kg, treated animals (Example 3)",~70%
